Our source for the inhibition and AUC(0-inf) values is ChEMBL document CHEMBL4387741, “Optimization of novel reversible Bruton's tyrosine kinase inhibitors identified using Tethering-fragment-based screens” (Bioorg Med Chem, 2019).

Data set [1] deals with Calcium/calmodulin-dependent protein kinase type 1D (Homo sapiens) (UniProt Q8IU85). The data set can be described thus: Inhibition of wild-type human partial length CAMK1D (M1 to K299 residues) expressed in bacterial expression system at 1 uM by Kinomescan method relative to control.
In data set [2] the test system is Phosphatidylinositol 4,5-bisphosphate 3-kinase catalytic subunit alpha isoform (Homo sapiens), P42336 [H1047Y]. Kind of data set: Inhibition of human partial length PIK3CA H1047Y mutant (R108 to N1068 residues) expressed in mammalian expression system at 1 uM by Kinomescan method relative to control.
Data set [3] deals with Ribosomal protein S6 kinase alpha-2 (Homo sapiens) (UniProt Q15349). Kind of data set: Inhibition of wild-type human partial length N-terminal RSK3 kinase domain 1 (M1 to Q385 residues) expressed in bacterial expression system at 1 uM by Kinomescan method relative to control.
In data set [4] the target is STE20-like serine/threonine-protein kinase (Homo sapiens) (UniProt Q9H2G2). The data set can be described thus: Inhibition of wild-type human partial length SLK (S14 to A307 residues) expressed in bacterial expression system at 1 uM by Kinomescan method relative to control.
The target of data set [5] is Serine/threonine-protein kinase ULK2 (Homo sapiens) (UniProt Q8IYT8). Kind of data set: Inhibition of wild-type human partial length ULK2 (M1 to S301 residues) expressed in mammalian expression system at 1 uM by Kinomescan method relative to control.
The target in data set [6] is Wee1-like protein kinase 2 (Homo sapiens) (UniProt P0C1S8). Kind of data set: Inhibition of wild-type human partial length WEE2 (M204 to K492 residues) expressed in bacterial expression system at 1 uM by Kinomescan method relative to control.
Data set [7] is described as follows: AUC (infinity) in po dosed Sprague-Dawley rat using amorphous solid form of compound. The settings on record: in vivo. Also on record: route oral, time infinity. The format is ADME, organism-based.
Data set [8] deals with ALK tyrosine kinase receptor (Homo sapiens), Q9UM73 [C1156Y]. Kind of data set: Inhibition of wild-type human partial length ALK C1156Y mutant (I1088 to E1409 residues) expressed in mammalian expression system at 10 uM by Kinomescan method relative to control.
Data set [9] concerns the target Cyclin-dependent kinase 11A (Homo sapiens) (UniProt Q9UQ88). The data set can be described thus: Inhibition of wild-type human partial length CDC2L2 (D391 to K730 residues) expressed in bacterial expression system at 10 uM by Kinomescan method relative to control.
Data set [10] addresses CDK4/Cyclin D3 (Homo sapiens) (UniProt P11802+P30281). The data set can be described thus: Inhibition of wild-type human full length CDK4/cyclinD3 (M1 to E303 residues) expressed in mammalian expression system at 10 uM by Kinomescan method relative to control.
Data set [11] has as its target Cyclin-dependent kinase 7 (Homo sapiens) (UniProt P50613). The data set can be described thus: Inhibition of wild-type human full length CDK7 (M1 to L344 residues) expressed in mammalian expression system at 10 uM by Kinomescan method relative to control.
Data set [12] has as its target Casein kinase I isoform alpha (Homo sapiens) (UniProt P48729). Kind of data set: Inhibition of wild-type human partial length CSNK1A1 (M1 to L450 residues) expressed in mammalian expression system at 10 uM by Kinomescan method relative to control.
For data set [13], the target named is Casein kinase I isoform gamma-2 (Homo sapiens) (UniProt P78368). The data set can be described thus: Inhibition of wild-type human full length CSNK1G2 (M1 to K415 residues) expressed in bacterial expression system at 10 uM by Kinomescan method relative to control.
In data set [14] the target is Epidermal growth factor receptor (Homo sapiens) (UniProt P00533). The data set can be described thus: Inhibition of wild-type human partial length EGFR (R669 to V1011 residues) expressed in bacterial expression system at 10 uM by Kinomescan method relative to control.
Data set [15] has as its system Epidermal growth factor receptor (Homo sapiens), P00533 [G719C]. The data set can be described thus: Inhibition of human partial length EGFR G719C mutant (R669 to V1011 residues) expressed in bacterial expression system at 10 uM by Kinomescan method relative to control.
In data set [16] the target is Mitogen-activated protein kinase kinase kinase kinase 1 (Homo sapiens) (UniProt Q92918). Kind of data set: Inhibition of wild-type human full length HPK1 (M1 to R799 residues) expressed in bacterial expression system at 10 uM by Kinomescan method relative to control.
In data set [17] the target is Mitogen-activated protein kinase kinase kinase kinase 2 (Homo sapiens) (UniProt Q12851). Kind of data set: Inhibition of wild-type human partial length MAP4K2 (M1 to G318 residues) expressed in mammalian expression system at 10 uM by Kinomescan method relative to control.
Data set [18] deals with MAP kinase-interacting serine/threonine-protein kinase 1 (Homo sapiens) (UniProt Q9BUB5). The data set can be described thus: Inhibition of wild-type human full length MKNK1 (M1 to L424 residues) expressed in mammalian expression system at 10 uM by Kinomescan method relative to control.
The target of data set [19] is Myosin light chain kinase 2, skeletal/cardiac muscle (Homo sapiens) (UniProt Q9H1R3). The data set can be described thus: Inhibition of wild-type human partial length MYLK2 (D258 to K570 residues) expressed in bacterial expression system at 10 uM by Kinomescan method relative to control.
In data set [20] the target is Serine/threonine-protein kinase 38 (Homo sapiens) (UniProt Q15208). The data set can be described thus: Inhibition of wild-type human partial length NDR1 (N33 to E449 residues) expressed in mammalian expression system at 10 uM by Kinomescan method relative to control.
The target in data set [21] is Platelet-derived growth factor receptor alpha (Homo sapiens) (UniProt P16234). The data set can be described thus: Inhibition of wild-type human partial length PDGFRA (V575 to D1002 residues) expressed in mammalian expression system at 10 uM by Kinomescan method relative to control.
Data set [22] concerns the target Protein kinase C delta type (Homo sapiens) (UniProt Q05655). Kind of data set: Inhibition of wild-type human partial length PRKCD (Q328 to D676 residues) expressed in bacterial expression system at 10 uM by Kinomescan method relative to control.
The target of data set [23] is Protein kinase C epsilon type (Homo sapiens) (UniProt Q02156). The data set can be described thus: Inhibition of wild-type human partial length PRKCE (A378 to P737 residues) expressed in mammalian expression system at 10 uM by Kinomescan method relative to control.
Data set [24] addresses SRSF protein kinase 1 (Homo sapiens) (UniProt Q96SB4). Kind of data set: Inhibition of wild-type human full length SRPK1 (M1 to S655 residues) expressed in bacterial expression system at 10 uM by Kinomescan method relative to control.
The target in data set [25] is SRSF protein kinase 3 (Homo sapiens) (UniProt Q9UPE1). Kind of data set: Inhibition of wild-type human partial length SRPK3 (P41 to P567 residues) expressed in bacterial expression system at 10 uM by Kinomescan method relative to control.
Data set [26] addresses TGF-beta receptor type-1 (Homo sapiens) (UniProt P36897). Kind of data set: Inhibition of wild-type human partial length TGFBR1 (D179 to M503 residues) expressed in bacterial expression system at 10 uM by Kinomescan method relative to control.
The target in data set [27] is High affinity nerve growth factor receptor (Homo sapiens) (UniProt P04629). The data set can be described thus: Inhibition of wild-type human partial length TRKA (G475 to G790 residues) expressed in mammalian expression system at 10 uM by Kinomescan method relative to control.

Molecules are shown by their SMILES.

Sequence of Ribosomal protein S6 kinase alpha-2 (Homo sapiens) (Q15349 whole entry, the tested form may be a part): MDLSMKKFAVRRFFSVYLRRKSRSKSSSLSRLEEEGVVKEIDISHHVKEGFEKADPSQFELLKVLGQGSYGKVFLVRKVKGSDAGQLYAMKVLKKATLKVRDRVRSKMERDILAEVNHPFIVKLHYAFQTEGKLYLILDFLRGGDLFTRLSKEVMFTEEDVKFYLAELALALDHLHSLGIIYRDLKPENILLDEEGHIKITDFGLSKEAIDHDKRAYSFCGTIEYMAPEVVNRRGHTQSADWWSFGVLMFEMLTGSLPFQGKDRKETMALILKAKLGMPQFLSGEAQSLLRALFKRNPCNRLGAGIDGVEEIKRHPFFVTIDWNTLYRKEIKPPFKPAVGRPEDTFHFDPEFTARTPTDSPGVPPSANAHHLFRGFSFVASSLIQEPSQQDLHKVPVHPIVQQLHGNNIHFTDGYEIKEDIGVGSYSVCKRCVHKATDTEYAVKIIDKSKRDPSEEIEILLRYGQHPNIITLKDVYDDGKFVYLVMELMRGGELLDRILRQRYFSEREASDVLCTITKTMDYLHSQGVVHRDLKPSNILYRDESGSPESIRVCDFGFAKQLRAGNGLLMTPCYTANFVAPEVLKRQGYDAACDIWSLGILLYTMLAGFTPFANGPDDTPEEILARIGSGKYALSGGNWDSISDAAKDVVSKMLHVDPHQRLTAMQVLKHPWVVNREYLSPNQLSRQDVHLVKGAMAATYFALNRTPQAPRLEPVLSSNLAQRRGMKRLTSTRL
Sequence of MAP kinase-interacting serine/threonine-protein kinase 1 (Homo sapiens) (Q9BUB5 whole entry, looked up, the tested form may be a part): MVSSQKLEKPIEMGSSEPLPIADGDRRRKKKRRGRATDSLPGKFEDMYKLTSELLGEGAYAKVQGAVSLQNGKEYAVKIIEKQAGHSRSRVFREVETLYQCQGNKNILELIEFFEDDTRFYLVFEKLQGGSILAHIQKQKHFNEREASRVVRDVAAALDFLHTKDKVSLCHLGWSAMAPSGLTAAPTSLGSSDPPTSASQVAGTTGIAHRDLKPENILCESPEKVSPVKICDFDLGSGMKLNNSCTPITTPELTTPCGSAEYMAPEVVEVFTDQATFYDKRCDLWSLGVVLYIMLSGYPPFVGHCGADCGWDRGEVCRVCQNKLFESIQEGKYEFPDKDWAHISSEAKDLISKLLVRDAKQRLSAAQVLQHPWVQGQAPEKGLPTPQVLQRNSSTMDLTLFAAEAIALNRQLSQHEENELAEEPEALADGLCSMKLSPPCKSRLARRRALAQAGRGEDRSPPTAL
Sequence of Calcium/calmodulin-dependent protein kinase type 1D (Homo sapiens) (Q8IU85 whole entry, looked up, the tested form may be a part, canonical isoform): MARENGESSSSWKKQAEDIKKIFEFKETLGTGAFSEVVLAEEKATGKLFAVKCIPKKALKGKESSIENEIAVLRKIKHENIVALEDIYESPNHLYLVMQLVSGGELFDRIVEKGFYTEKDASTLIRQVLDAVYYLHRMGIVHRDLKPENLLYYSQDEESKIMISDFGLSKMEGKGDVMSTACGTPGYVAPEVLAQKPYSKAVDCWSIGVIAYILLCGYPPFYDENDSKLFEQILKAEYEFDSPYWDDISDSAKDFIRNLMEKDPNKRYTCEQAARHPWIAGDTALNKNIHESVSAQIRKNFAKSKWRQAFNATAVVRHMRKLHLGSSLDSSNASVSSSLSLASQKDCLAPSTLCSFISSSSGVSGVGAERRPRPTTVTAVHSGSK
Sequence of Phosphatidylinositol 4,5-bisphosphate 3-kinase catalytic subunit alpha isoform (Homo sapiens), P42336 [H1047Y] (P42336 whole entry H1047Y, the tested form may be a part, canonical isoform): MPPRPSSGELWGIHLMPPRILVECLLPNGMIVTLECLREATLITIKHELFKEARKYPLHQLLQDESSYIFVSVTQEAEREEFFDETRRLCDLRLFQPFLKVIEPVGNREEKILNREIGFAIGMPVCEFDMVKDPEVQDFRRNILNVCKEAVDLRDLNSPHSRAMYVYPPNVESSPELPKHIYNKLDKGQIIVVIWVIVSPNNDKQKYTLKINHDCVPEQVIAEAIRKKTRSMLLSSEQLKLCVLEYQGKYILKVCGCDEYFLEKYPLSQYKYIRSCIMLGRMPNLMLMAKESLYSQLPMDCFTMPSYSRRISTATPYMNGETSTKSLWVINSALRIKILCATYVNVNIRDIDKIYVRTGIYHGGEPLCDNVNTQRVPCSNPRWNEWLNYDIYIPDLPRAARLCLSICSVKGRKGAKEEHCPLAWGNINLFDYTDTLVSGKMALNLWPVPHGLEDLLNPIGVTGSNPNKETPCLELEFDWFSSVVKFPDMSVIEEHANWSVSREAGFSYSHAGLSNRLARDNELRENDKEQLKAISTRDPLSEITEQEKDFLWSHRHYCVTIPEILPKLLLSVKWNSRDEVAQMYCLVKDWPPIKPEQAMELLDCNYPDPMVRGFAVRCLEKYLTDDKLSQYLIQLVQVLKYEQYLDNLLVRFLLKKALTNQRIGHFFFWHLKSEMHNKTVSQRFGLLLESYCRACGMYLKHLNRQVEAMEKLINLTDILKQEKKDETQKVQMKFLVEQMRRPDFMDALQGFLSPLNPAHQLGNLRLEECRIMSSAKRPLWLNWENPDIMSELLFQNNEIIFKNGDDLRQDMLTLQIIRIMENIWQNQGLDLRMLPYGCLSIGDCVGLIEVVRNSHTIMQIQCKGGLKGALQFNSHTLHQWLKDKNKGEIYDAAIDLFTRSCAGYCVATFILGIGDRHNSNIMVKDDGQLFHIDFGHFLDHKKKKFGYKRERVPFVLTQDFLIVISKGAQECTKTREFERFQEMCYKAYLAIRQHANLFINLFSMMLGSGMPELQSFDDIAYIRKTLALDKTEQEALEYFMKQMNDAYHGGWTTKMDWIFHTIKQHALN
Sequence of Cyclin-dependent kinase 7 (Homo sapiens) (P50613 whole entry, the tested form may be a part, canonical isoform): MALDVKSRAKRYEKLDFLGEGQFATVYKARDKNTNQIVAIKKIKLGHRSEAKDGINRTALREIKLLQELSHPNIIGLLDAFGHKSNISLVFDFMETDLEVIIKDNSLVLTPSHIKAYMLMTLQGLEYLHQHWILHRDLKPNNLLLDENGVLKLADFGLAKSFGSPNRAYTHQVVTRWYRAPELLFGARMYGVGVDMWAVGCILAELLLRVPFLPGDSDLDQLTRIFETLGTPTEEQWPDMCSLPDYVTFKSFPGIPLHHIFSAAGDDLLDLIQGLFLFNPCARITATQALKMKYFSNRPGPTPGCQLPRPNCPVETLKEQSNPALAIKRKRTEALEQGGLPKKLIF
Sequence of Mitogen-activated protein kinase kinase kinase kinase 2 (Homo sapiens) (Q12851 whole entry, the tested form may be a part): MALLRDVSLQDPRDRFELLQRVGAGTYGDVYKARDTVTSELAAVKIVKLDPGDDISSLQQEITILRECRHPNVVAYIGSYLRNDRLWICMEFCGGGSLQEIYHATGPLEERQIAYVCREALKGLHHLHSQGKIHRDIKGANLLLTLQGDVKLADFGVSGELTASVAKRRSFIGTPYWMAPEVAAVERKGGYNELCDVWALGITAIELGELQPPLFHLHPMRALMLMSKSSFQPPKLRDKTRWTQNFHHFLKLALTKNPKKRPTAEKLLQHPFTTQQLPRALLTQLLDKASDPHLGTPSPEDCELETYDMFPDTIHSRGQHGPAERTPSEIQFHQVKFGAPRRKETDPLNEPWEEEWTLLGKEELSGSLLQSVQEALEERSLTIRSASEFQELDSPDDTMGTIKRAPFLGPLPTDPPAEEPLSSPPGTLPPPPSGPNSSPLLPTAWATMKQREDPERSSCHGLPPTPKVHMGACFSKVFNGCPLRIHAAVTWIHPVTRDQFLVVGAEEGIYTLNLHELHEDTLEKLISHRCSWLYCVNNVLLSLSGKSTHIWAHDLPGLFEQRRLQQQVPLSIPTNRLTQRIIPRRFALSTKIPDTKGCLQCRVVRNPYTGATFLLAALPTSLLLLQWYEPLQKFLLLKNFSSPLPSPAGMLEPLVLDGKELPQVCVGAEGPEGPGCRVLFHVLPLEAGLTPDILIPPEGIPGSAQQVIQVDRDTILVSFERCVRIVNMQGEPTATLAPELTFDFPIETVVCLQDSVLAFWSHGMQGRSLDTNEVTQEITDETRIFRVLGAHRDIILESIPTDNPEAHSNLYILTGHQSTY
Sequence of Myosin light chain kinase 2, skeletal/cardiac muscle (Homo sapiens) (Q9H1R3 whole entry, the tested form may be a part): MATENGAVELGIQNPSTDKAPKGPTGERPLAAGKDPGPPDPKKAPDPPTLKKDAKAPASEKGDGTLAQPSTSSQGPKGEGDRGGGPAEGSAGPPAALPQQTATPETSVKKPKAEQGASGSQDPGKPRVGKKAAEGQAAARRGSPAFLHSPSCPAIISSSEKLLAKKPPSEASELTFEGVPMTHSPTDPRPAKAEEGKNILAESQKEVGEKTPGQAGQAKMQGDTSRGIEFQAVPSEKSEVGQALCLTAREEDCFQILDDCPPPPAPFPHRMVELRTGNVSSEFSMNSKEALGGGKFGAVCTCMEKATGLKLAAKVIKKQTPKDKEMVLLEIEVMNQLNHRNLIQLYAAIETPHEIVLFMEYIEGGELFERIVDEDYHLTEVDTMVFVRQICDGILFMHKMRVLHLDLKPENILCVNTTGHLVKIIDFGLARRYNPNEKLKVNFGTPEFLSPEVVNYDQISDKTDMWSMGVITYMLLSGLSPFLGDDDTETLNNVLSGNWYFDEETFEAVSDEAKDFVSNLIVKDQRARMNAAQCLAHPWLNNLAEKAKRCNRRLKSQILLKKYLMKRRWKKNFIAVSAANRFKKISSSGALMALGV
Sequence of Casein kinase I isoform gamma-2 (Homo sapiens) (P78368 whole entry, looked up, the tested form may be a part, canonical isoform): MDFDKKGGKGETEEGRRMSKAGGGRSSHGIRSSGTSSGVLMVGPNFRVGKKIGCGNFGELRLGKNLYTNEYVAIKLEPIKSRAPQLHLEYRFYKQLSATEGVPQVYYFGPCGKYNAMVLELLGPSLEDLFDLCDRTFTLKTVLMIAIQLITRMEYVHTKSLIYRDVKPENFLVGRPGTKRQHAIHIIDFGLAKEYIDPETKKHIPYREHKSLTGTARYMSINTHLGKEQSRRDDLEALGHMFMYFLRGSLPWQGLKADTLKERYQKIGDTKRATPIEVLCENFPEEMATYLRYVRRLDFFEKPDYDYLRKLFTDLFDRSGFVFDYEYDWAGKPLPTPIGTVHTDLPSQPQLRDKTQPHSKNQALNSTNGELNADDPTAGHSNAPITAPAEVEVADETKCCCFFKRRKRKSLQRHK

In the case of `O=C(Nc1cccc([C@@H]2CN(c3ncnc4[nH]ccc34)CCN2CCO)c1)Nc1c(F)cccc1N1CCCC1`, the inhibition was determined as 100% in data set [1]; 53% in [2]; 88% in [3]; 88% in data set [4]; 39% in data set [5]; 93% in data set [6]. Further, the AUC(0-inf) in data set [7] was found to be 1890 ng·h/mL.

Regarding `O=C(Nc1cccc([C@H]2CCCN(c3ncnc4[nH]ccc34)C2)c1)Nc1ccccc1N1CCCC1`, the inhibition in data set [8] was found to be 57%; in [9], 49%; in data set [10] it was 100%; in data set [11], 70%; in data set [12], 62%; in [13], 100%. Also, the inhibition in data set [14] was determined as 88%; in [15] it was 86%; in data set [16] it was 100%; in [17] it was 61%; in data set [18] it was 55%; in [19], 58%. In addition, the inhibition was 57% in [20]; 0.6% in [21]; 100% in data set [22]; 59% in data set [23]; 0.45% in [24]; 9% in [25]. The inhibition worked out at 96% in data set [26] and 26% in [27].

In general, inhibition refers to the drop in the measured response relative to a control, in per cent. In general, AUC(0-inf) refers to total exposure, with the tail of the curve extrapolated. A lower AUC(0-inf) goes with low exposure.
